Molecular target: T1, LmME (Leishmania major, UniProt Q4QAQ6)
T1 sequence (Q4QAQ6 1-573): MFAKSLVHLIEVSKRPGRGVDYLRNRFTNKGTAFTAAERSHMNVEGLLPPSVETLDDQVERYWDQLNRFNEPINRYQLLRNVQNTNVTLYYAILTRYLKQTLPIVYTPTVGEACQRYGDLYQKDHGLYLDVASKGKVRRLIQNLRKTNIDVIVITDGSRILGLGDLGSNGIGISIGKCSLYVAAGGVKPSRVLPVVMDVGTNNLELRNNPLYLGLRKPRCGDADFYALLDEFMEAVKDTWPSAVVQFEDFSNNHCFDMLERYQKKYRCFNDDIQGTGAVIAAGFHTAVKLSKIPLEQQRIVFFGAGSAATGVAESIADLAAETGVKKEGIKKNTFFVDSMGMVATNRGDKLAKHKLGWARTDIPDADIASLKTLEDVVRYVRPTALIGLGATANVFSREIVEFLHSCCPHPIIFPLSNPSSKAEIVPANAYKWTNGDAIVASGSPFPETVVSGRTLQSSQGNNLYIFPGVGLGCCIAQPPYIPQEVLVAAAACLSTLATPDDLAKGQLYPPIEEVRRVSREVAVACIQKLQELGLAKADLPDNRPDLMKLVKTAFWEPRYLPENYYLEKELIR
Assay: spectrophotometric NADPH assay at […] nm, malate decarboxylation
Type: biochemical

IC50: 1.59 µM
SMILES: c1ccc(-c2nnc3sc(Cc4ccc5c(c4)CCCC5)nn23)nc1 [ATR7-010]

— article doi:10.1101/2020.06.19.161828v1 (biorxiv, 2020)
